Results reported in patent US20150359794A1, “IMPAIRMENT OF THE LARGE RIBOSOMAL SUBUNIT PROTEIN RPL24 BY DEPLETION OR ACETYLATION” (Buck Institute for Research on Aging, priority 2014, published 2015).

Legend:
SKBR3 cells = assay: Polysome profiling and western blot of 60S fractions; format: cell-based, human; details: TSA 1 μM, 2 h
Description: Since RPL24 depletion decreased the levels of three cap-dependently translated proteins, the impact of RPL24 knockdown on overall ribosome and polysome formation in these cells was evaluated. Polysome profiling, which utilizes continuous sucrose gradient fractionation to separate free 40S and 60S ribosomal subunits, 80S ribosomes, and polysomes (two or more ribosomes on one mRNA) was used. […] This observed increase in 40S and 60S subunits relative to 80S ribosomes implies a defect in 40S-60S joining induced by the RPL24 knockdown. Since eIF6 bound to the pre-60S subunit prevents joining of the 40S and 60S subunits and occurs adjacent to RPL24 on 60S (FIG. 3c), immunoblotting on all 60S-containing polysome fractions to evaluate the impact of RPL24 knockdown on eIF6 retention was performed. […] Associated with the observed 60S loss of RPL24 was a striking increase in 60S-associated eIF6 (FIG. 3d). To rule out the possibility that the observed 60S retention of eIF6 might be a false-positive or non-specific artifact of lentiviral expressed RPL24 shRNA, a functionally deficient truncation mutant of RPL24 that eliminates the last 17 amino acids was overexpressed. Polysome profiling of 293T cells expressing intact versus truncated RPL24 protein confirmed that truncated RPL24 can induce 60S retention of eIF6 (FIG. 8).
Polysome profiles to separate the 40S, 60S, 80S and polysomes are carried out by layering cell lysates over a continuous 10-50% sucrose gradient and spun at 38,000 rpm for 2 h as previously described. Fractions are collected using a Retriever 500 fraction collector with a UV (UA6) detector (ISCO Teledyne (Lincoln, Nebr.)).
FIG. 3: RPL24 knockdown reduces 80S and polysome assembly while increasing 60S retention of eIF6. […] (a) Western blots using the indicated antibodies were performed on total cell lysates to assess knockdown efficiency. (b) Lysates were applied to a continuous sucrose gradient (10-50%) and ultracentrifugation followed by fractionation was performed to separate ribosomal subunits and polysomes. […]

[1] = tested on: cyclin D1, survivin, and NBS1; assay: Western blot of cap (eIF4E)-dependently translated proteins; format: cell-based, human; details: SKBR3 cells
Description: Since the translation-dependent checkpoint mechanism remains undefined, the impact of RPL24 depletion in a model human breast cancer cell line, SKBR3, sensitive to eIF4E-regulated and cap-dependent translation inhibition was evaluated. Two different RPL24-directed shRNA-expressing lentiviruses were used to decrease RPL24 protein expression by approximately 70% (FIG. 2a). […] Associated with RPL24 depletion and growth inhibition was a marked reduction in the expression of three different eIF4E-regulated and cap-dependent transcripts necessary for cell proliferation (75% reduction in cyclin D1), survival (46% reduction in survivin), and DNA repair and integrity (30% reduction in NBS1). Protein levels of two housekeeping genes not regulated by eIF4E, GAPDH and β-tubulin, were not affected by RPL24 depletion (FIG. 2a).
Cells are lysed in RIPA buffer (10 mM Tris-HCL (pH 8.0), 1 mM EDTA, 0.5 mM EGTA, 1% triton X-100, 0.1% sodium deoxycholate, 0.1% SDS, 140 mM NaCl, 20 mM NaF, Complete EDTA-free protease inhibitor tablets (Roche Diagnostics Corp., Basel, Switzerland) and the phosphatase inhibitor cocktail PhosSTOP (Roche)), the latter two as indicated by the manufacturer's protocol. Equal amounts of protein are diluted in 2× sample buffer. Immunoblots on PVDF (Polyvinyldene Fluoride) membranes are blocked with nonfat milk in tris-buffered saline with 0.05% tween-20 (TBST). The following antibodies are incubated with membranes in 5% nonfat milk in TBST: RPL24 (Proteintech, Chicago, Ill.), Cyclin D1, Rack1, RPL4 (Santa Cruz Biotechnology, Santa Cruz, Calif.), NBS1, GAPDH (EMD Millipore Corporation, Chicago, Ill.), Survivin, β-tubulin, acetyl-lysine, eIF6, acetyl-H2B, H2B, (Cell Signaling Technology, Boston, Mass.), acetyl-tubulin, tubulin (Sigma Aldrich (St. Louis, Mo.))
FIG. 2: RPL24 knockdown reduces breast cancer cell viability while inhibiting cap (eIF4E)-dependent expression of proliferation, survival and genome stability proteins. SKBR3 cells were infected with lentiviruses expressing a GFP control or RPL24-targeting shRNA. After one week of puromycin selection, cells were plated in 96-well plates for viability assays and lysates were taken in parallel for western blots. (a) Western blots were performed on lysates from an equal number of cells using antibodies toward the indicated proteins. (b) Viability assay readings were taken three hours after plating (day 0) and four days after plating (day 4). The day 4 results were normalized for plating efficiency using the day 0 values. Error bars represent three replicate samples.
FIG. 5: Like RPL24 knockdown, histone deacetylase inhibition reduces 80S assembly while increasing 60S retention of eIF6 and reduces expression of cap (eIF4)-dependently translated proteins (a,b) SKBR3 cells were treated with TSA (1 μM, 2 h). […]

CC(/C=C/C(=O)NO)=C\[C@@H](C)C(=O)c1ccc(N(C)C)cc1 [TSA, trichostatin-A]
60S RPL24 levels (SKBR3 cells): without reducing | 60S retention of eIF6 (SKBR3 cells): increasing | 80S and polysome assembly (SKBR3 cells): reduced | cyclin D1 levels ([1]; 8 h treatment): reduced | expression of NBS1 relative to GAPDH and β-tubulin ([1]; 24 h treatment): reduced | expression of cyclin D1 relative to GAPDH and β-tubulin ([1]; 24 h treatment): reduced | expression of survivin relative to GAPDH and β-tubulin ([1]; 24 h treatment): reduced
